# Laboratory results as given in patent US20050180982A1, “Cadherin-11 expression, an assay and treatment for cellular invasiveness” (THE UNIVERSITY OF BRITISH COLUMBIA, priority 1998, published 2005).
# Assays:
# [1] = test system: extravillous cytotrophoblasts; experiment: Immunocytochemistry for cad-11 and morphology of extravillous cytotrophoblasts cultured with TGF-1; format: cell-based, human
# Procedure: (§1) First trimester placentae were obtained from elective terminations of pregnancies (8-13 weeks). Extravillous cytotrophoblasts were propagated from first trimester placental explants as described by Graham et al. Biology of Reproduction 46:561-572. The chorionic villi were washed thoroughly in Dulbecco's Modified Eagle's Medium (DMEM; Gibco BRL. Burlington. Ont.) containing 25 mM glucose, 25 mM Hepes and […] gentamicin. The villi were minced finely and plated in 25 cm^2 tissue culture flasks containing DMEM supplemented with antibiotics and 10% heat-inactivated fetal calf serum (FCS). The fragments of chorionic villi were allowed to adhere for […], after which the non-adherent material was removed. The villous explants were cultured for a further 10-14 days, with the culture medium being replaced every 3 days. The propagated extravillous cytotrophoblasts were separated from the villous explants by a trypsin digestion (0.125% trypsin in Ca^2−, Mg^2−-free PBS) and plated in 60 mm culture dishes containing DMEM supplemented with antibiotics and 10% FCS. The purity of the extravillous cytotrophoblast cultures was determined by cytokeratin immunostaining. Only cultures which were 100% positive for cytokeratin immunostaining were used.
# (§2) Extravillous cytotrophoblasts grown to 70% confluence in DMEM containing 10% FCS, were washed with PBS and cultured in serum-free DMEM for a further 24 hours. This culture medium was removed and after the cells had been washed twice with PBS, replaced with serum-free DMEM containing porcine TGF-1 (1 pg-10 ng/ml); Sigma Chemical Co., St. Louis. MO) or vehicle ([…]). The cells were fixed for morphological assessment and immunocytochemistry or harvested for Northern or Western blot analysis after 24 hours of culture in the presence or absence of TGF-1.
# The cells were washed twice in PBS and fixed in 0.1% glutaraldehyde/2% formaldehyde at 4° C. for 20 minutes Immunocytochemistry was performed using a mouse monoclonal antibody directed against human cytokeratin filaments 8 and 18 (Becton Dickson. San lose. CA) or a further monoclonal antibody directed against human cad-11 (C11-113E; ICOS Corporation. Bothell, Wash.; ATCC accession no. HB-12515) as described in (MacCalman et al. 1996 [supra] and Getsios et al. 1998 [supra]). Sequential incubations were performed according to the methods of Cartun and Pedersen (1989) J. of Histotechnology 12:273-280 and included 10% normal horse serum for 30 minutes, primary antiserum at 37° C. for 1 hours, secondary biotinylated antibody at 37° C. for 45 minutes, streptavidin-biotinylated horseradish peroxidase complex reagent at 37° C. for 30 minutes, and three five minutes washes in PBS. […]
# [2] = test system: cad-11 mRNA in PC3 prostate cancer cell line; experiment: Semiquantitative PCR of cad-11 mRNA in PC3 cells cultured with TGF-1; format: cell-based; conditions: TGF-1 10 pg-1 ng/ml for 24 hours
# Text: (§3) However, low levels of the mRNA transcripts encoding E-cadherin and cad-11 were also detected in these cell lines.
# (§4) The increase in cad-11 was concomitant with a decrease in cad-6 and N-cadherin mRNA levels.
# [3] = test system: cad-11 protein in extravillous cytotrophoblasts; experiment: Western blot of cad-11 protein in extravillous cytotrophoblasts cultured with TGF-1; format: cell-based, human
# Procedure: as §1, §2
# For Western blot analysis, the trophoblasts were incubated in 100 l of cell lysis buffer (Tris-HCl, pH 7.5 containing 0.5% Nonidet P40, 0.5 mM CaCl2 and 1.0 mM PMSF) at 4° C. for 30 minutes on a rocking platform. The cell lysates were centrifuges at 10.000×g for 20 minutes and the supernatant used in the Wester blot analyses. Aliquots were then taken from the samples and subjected to SDS-polyacrylamide gel electrophoresis under reducing conditions, as described by Laemmli (1970) Nature 227:680-685. The stacking gels contained 5% acrylamide and the separating eels were composed of 7.5% acrylamide. […]
# The results are presented as the mean relative absorbance (±SE) for three independent experiments. Statistical differences between treatments were assessed by the analysis of variance (ANOVA). […] Significant differences between the means were determined using the least significant test. […]
# [4] = test system: N-cadherin mRNA in PC3 prostate cancer cell line; experiment: PCR of N-cadherin mRNA in PC3 cells cultured with TGF-1; format: cell-based; conditions: TGF-1 10 pg-1 ng/ml for 24 hours
# Text: as §3, §4
# [5] = test system: cad-6 mRNA in PC3 prostate cancer cell line; experiment: PCR of cad-6 mRNA in PC3 cells cultured with TGF-1; format: cell-based; conditions: TGF-1 10 pg-1 ng/ml for 24 hours
# Text: as §3, §4
# [6] = test system: cad-11 mRNA in extravillous cytotrophoblasts; experiment: Northern blot of cad-11 mRNA in extravillous cytotrophoblasts cultured with TGF-1; format: cell-based, human
# Procedure: as §1
# Extravillous cytotrophoblasts grown to 70% confluence in DMEM containing 10% FCS, were washed with PBS and cultured in serum-free DMEM for a further 24 hours. […]
# The Northern blots were probed with a human cad-11 cDNA probe according to the methods of MacCalman et al. (1992) [supra]. […] The absorbance values obtained for the cad-11 mRNA transcript were normalized relative to the 18 rRNA absorbance value.
# The results are presented as the mean relative absorbance (±SE) for three independent experiments. Statistical differences between treatments were assessed by the analysis of variance (ANOVA). […] Significant differences between the means were determined using the least significant test.
# [7] = 1 or 10 ng/ml of TGF-1, 24 hours, only these concentrations
# [8] = TGF-1 1 pg-10 ng/ml, 24 hours, dose-dependent manner
substance,measurement,setting,value
"TGF-1: porcine TGF-1 (transforming growth factor), Sigma Chemical Co.",cellular structures observed,[1]; 0.1 ng/ml of TGF-1 for 12 hours,Large cellular aggregates
same,large cellular aggregates and multinucleated cells,"[1]; 10 ng/ml TGF-1, 24 hours",predominant
same,number of cells expressing cad-11,"[1]; 1 or 10 ng/ml of TGF-1, 24 hours, immunostaining",marked increase
same,cad-11 immunostaining of cell aggregates,[1]; high concentrations of TGF-1,Intense immunostaining
same,Cad-11 mRNA levels,[2],readily detectable
same,cad-11 protein expression levels at 1 or 10 ng/ml,[3]; [7],significant increase
same,TGF-1 concentration giving maximum cad-11 expression levels,[3]; 24 hours,10 ng/mL
same,"cad-11 protein expression levels, dose dependence",[3]; [8],increase
same,"cad-11 levels by Western blot, dose dependence",[3]; porcine TGF-1 10 pg-10 ng/ml,increased
same,N-cadherin mRNA levels,[4],decrease
same,cad-6 mRNA levels,[5],decrease
same,cad-11 mRNA levels at 1 or 10 ng/ml,[6]; [7],significant increase
same,TGF-1 concentration giving maximum cad-11 mRNA levels,[6]; 24 hours,10 ng/mL
same,"cad-11 mRNA levels, dose dependence",[6]; [8],increased
